Source: patent publication US20220054513A1, “COMBINATION COMPOSITIONS COMPRISING A BETA-LACTAMASE INHIBITOR” (VenatoRx Pharmaceuticals, Inc., priority 2018, published 2022)
Like-named read-outs stand apart in the source and are kept apart here.

Tests used:
[1] = tested on: Acinetobacter baumannii-calcoaceticus species complex clinical isolates; experiment: MIC of triple combinations (Compound 1, sulbactam, meropenem or cefepime), 141 clinical isolates; assay type: cell-based; settings: Acinetobacter, Cmpd 1 at 4 μg/mL in combinations, read-out: MIC
Excerpt: For a more comprehensive assessment of the ability of test compounds to potentiate sulbactam in triple combinations with β-lactams additional MIC assays were utilized.

[2] = tested on: multi-drug resistant Acinetobacter baumannii; experiment: broth microdilution MIC of sulbactam, ampicillin, cefepime and combinations +/- Compound 1, panel of 51 Acinetobacter isolates

MIC ([1]; strain 990089): 64 µg/mL
MIC ([1]; strain 993131): 64 µg/mL
MIC ([1]; strain 994180): 32 µg/mL
MIC ([1]; strain 996612): > 512 µg/mL
MIC ([1]; strain 996707): 64 µg/mL
MIC ([1]; strain 996869): 32 µg/mL
MIC ([1]; strain 997574): 16 µg/mL
MIC ([1]; strain 998532): 64 µg/mL
MIC ([1]; strain 998907): 8 µg/mL
MIC ([1]; strain 999306): 8 µg/mL
MIC ([1]; strain 1001611): 16 µg/mL
MIC ([1]; strain 1002208): 64 µg/mL
MIC ([1]; strain 1002247): > 512 µg/mL
MIC ([1]; strain 1002688): 64 µg/mL
MIC ([1]; strain 1002952): 64 µg/mL
MIC ([1]; strain 1003557): 64 µg/mL
MIC ([1]; strain 1003787): > 512 µg/mL
MIC ([1]; strain 1008510): 64 µg/mL
MIC ([1]; strain 1008730): 64 µg/mL
MIC ([1]; strain 1010245): 64 µg/mL
MIC ([1]; strain 1010331): > 512 µg/mL
MIC ([1]; strain 1010950): > 512 µg/mL
MIC ([1]; strain 1011959): 64 µg/mL
MIC ([1]; strain 1013022): 64 µg/mL
MIC ([1]; strain 1013035): 32 µg/mL
MIC ([1]; strain 1014143): 32 µg/mL
MIC ([1]; strain 1014646): 64 µg/mL
MIC ([1]; strain 1016836): 64 µg/mL
MIC ([1]; strain 1018109): 2 µg/mL
MIC ([1]; strain 1018801): > 512 µg/mL
MIC ([1]; strain 1023207): 32 µg/mL
MIC ([1]; strain 1024119): 32 µg/mL
MIC ([1]; strain 1024215): 32 µg/mL
MIC ([1]; strain 1027234): 64 µg/mL
MIC ([1]; strain 1027603): 64 µg/mL
MIC ([1]; strain 1027748): 32 µg/mL
MIC ([1]; strain 1028193): 32 µg/mL
MIC ([1]; strain 1029913): 32 µg/mL
MIC ([1]; strain 1030427): 32 µg/mL
MIC ([1]; strain 1030928): > 512 µg/mL
MIC ([1]; strain 1031191): 64 µg/mL
MIC ([1]; strain 1032669): 64 µg/mL
MIC ([1]; strain 1034880): 64 µg/mL
MIC ([1]; strain 1034912): 64 µg/mL
MIC ([1]; strain 1034925): 64 µg/mL
MIC ([1]; strain 1035788): 32 µg/mL
MIC ([1]; strain 1035794): 16 µg/mL
MIC ([1]; strain 1035825): 64 µg/mL
MIC ([1]; strain 1036045): 64 µg/mL
MIC ([1]; strain 1036068): 64 µg/mL
MIC ([1]; strain 1036768): > 512 µg/mL
MIC ([1]; strain 1036781): 32 µg/mL
MIC ([1]; strain 1036882): 16 µg/mL
MIC ([1]; strain 1036921): 32 µg/mL
MIC ([1]; strain 1037193): 32 µg/mL
MIC ([1]; strain 1037256): 32 µg/mL
MIC ([1]; strain 1037479): > 512 µg/mL
MIC ([1]; strain 1037714): 4 µg/mL
MIC ([1]; strain 1037732): 32 µg/mL
MIC ([1]; strain 1037738): 32 µg/mL
MIC ([1]; strain 1037747): > 512 µg/mL
MIC ([1]; strain 1039502): > 512 µg/mL
MIC ([1]; strain 1039515): 64 µg/mL
MIC ([1]; strain 1039518): 64 µg/mL
MIC ([1]; strain 1040900): 64 µg/mL
MIC ([1]; strain 1040917): > 512 µg/mL
MIC ([1]; strain 1042182): 32 µg/mL
MIC50 [2]: 32 µg/mL
MIC90 [2]: 128 µg/mL
MIC ([2]; read-out: Minimum inhibitory concentration (MIC), strain 0273 (ADC-25, OXA-23, OXA-66)): 32 µg/mL
MIC ([2]; read-out: Minimum inhibitory concentration (MIC), strain 0274 (TEM-1D, ADC-25, OXA-66, OXA-72)): 32 µg/mL
MIC ([2]; read-out: Minimum inhibitory concentration (MIC), strain 0275 (TEM-1D, ADC-25, OXA-23, OXA-66)): 32 µg/mL
MIC ([2]; read-out: Minimum inhibitory concentration (MIC), strain 0276 (enzyme content ND)): 128 µg/mL
MIC ([2]; read-out: Minimum inhibitory concentration (MIC), strain 0277 (TEM-1B, OXA-65, OXA-24)): 128 µg/mL
MIC ([2]; read-out: Minimum inhibitory concentration (MIC), strain 0278 (TEM-1D, ADC-25, OXA-23, OXA-66)): 32 µg/mL
MIC ([2]; read-out: Minimum inhibitory concentration (MIC), strain 0279 (TEM-1D, ADC-25, OXA-23, OXA-66)): 32 µg/mL
MIC ([2]; read-out: Minimum inhibitory concentration (MIC), strain 0280 (TEM-1D, ADC-25, OXA-66)): 16 µg/mL
MIC ([2]; read-out: Minimum inhibitory concentration (MIC), strain 0281 (TEM-1D, ADC-25, OXA-82)): 16 µg/mL
MIC ([2]; read-out: Minimum inhibitory concentration (MIC), strain 0282 (TEM-1D, ADC-25, OXA-23, OXA-66)): 64 µg/mL
MIC ([2]; read-out: Minimum inhibitory concentration (MIC), strain 0283 (TEM-1D, ADC-25, OXA-23, OXA-66)): 16 µg/mL
MIC ([2]; read-out: Minimum inhibitory concentration (MIC), strain 0284 (TEM-1B, OXA-65, OXA-24)): 32 µg/mL
MIC ([2]; read-out: Minimum inhibitory concentration (MIC), strain 0285 (TEM-1B, OXA-65, OXA-24)): 32 µg/mL
MIC ([2]; read-out: Minimum inhibitory concentration (MIC), strain 0286 (ADC-25, OXA-66, OXA-24)): 32 µg/mL
MIC ([2]; read-out: Minimum inhibitory concentration (MIC), strain 0287 (ADC-25, OXA-66, OXA-72)): 32 µg/mL
MIC ([2]; read-out: Minimum inhibitory concentration (MIC), strain 0288 (ADC-25, OXA-23, OXA-66)): 128 µg/mL
MIC ([2]; read-out: Minimum inhibitory concentration (MIC), strain 0289 (ADC-25, OXA-66, OXA-72)): 32 µg/mL
MIC ([2]; read-out: Minimum inhibitory concentration (MIC), strain 0290 (TEM-1D, ADC-25, OXA-23, OXA-66)): 32 µg/mL
MIC ([2]; read-out: Minimum inhibitory concentration (MIC), strain 0291 (TEM-1D, ADC-25, OXA-23, OXA-66)): 8 µg/mL
MIC ([2]; read-out: Minimum inhibitory concentration (MIC), strain 0292 (OXA-66, OXA-72)): 32 µg/mL
MIC ([2]; read-out: Minimum inhibitory concentration (MIC), strain 0293 (OXA-66, OXA-72)): 16 µg/mL
MIC ([2]; read-out: Minimum inhibitory concentration (MIC), strain 0294 (TEM-1B, OXA-23, OXA-65)): 32 µg/mL
MIC ([2]; read-out: Minimum inhibitory concentration (MIC), strain 0295 (TEM-1D, ADC-25, OXA-23, OXA-66)): 32 µg/mL
MIC ([2]; read-out: Minimum inhibitory concentration (MIC), strain 0296 (ADC-25, OXA-23, OXA-223)): 64 µg/mL
MIC ([2]; read-out: Minimum inhibitory concentration (MIC), strain 0297 (ADC-25, OXA-23, OXA-66)): 32 µg/mL
MIC ([2]; read-out: Minimum inhibitory concentration (MIC), strain 0298 (TEM-1D, ADC-25, OXA-66, OXA-237)): 32 µg/mL
MIC ([2]; read-out: Minimum inhibitory concentration (MIC), strain 0299 (PER-7, OXA-23, OXA-203)): 128 µg/mL
MIC ([2]; read-out: Minimum inhibitory concentration (MIC), strain 0300 (ADC-25, OXA-66)): 16 µg/mL
MIC ([2]; read-out: Minimum inhibitory concentration (MIC), strain 0301 (ADC-25, OXA-66, OXA-72)): 128 µg/mL
MIC ([2]; read-out: Minimum inhibitory concentration (MIC), strain 0302 (OXA-23, OXA-82)): 16 µg/mL
MIC ([2]; read-out: Minimum inhibitory concentration (MIC), strain 0303 (ADC-25, OXA-23, OXA-66)): 16 µg/mL
MIC ([2]; read-out: Minimum inhibitory concentration (MIC), strain 0304 (ADC-25, OXA-66, OXA-72)): 32 µg/mL
MIC ([2]; read-out: Minimum inhibitory concentration (MIC), strain 0305 (TEM-1B, OXA-65, OXA-24)): 16 µg/mL
MIC ([2]; read-out: Minimum inhibitory concentration (MIC), strain 0306 (TEM-1B, OXA-65, OXA-24)): 128 µg/mL
MIC ([2]; read-out: Minimum inhibitory concentration (MIC), strain 0307 (ADC-25, OXA-66, OXA-237)): 32 µg/mL
MIC ([2]; read-out: Minimum inhibitory concentration (MIC), strain 0308 (TEM-1D, ADC-25, OXA-71)): 16 µg/mL
MIC ([2]; read-out: Minimum inhibitory concentration (MIC), strain 0309 (OXA-23, OXA-82)): 64 µg/mL
MIC ([2]; read-out: Minimum inhibitory concentration (MIC), strain 0310 (OXA-23, OXA-82)): 32 µg/mL
MIC ([2]; read-out: Minimum inhibitory concentration (MIC), strain 0311 (ADC-25, OXA-23, OXA-82)): 128 µg/mL
MIC ([2]; read-out: Minimum inhibitory concentration (MIC), strain 0312 (OXA-69)): 32 µg/mL
MIC ([2]; read-out: Minimum inhibitory concentration (MIC), strain 0313 (TEM-1D, OXA-23, OXA-69)): 64 µg/mL
MIC ([2]; read-out: Minimum inhibitory concentration (MIC), strain 157834 (enzyme content ND)): 16 µg/mL
MIC ([2]; read-out: Minimum inhibitory concentration (MIC), strain 157842 (enzyme content ND)): 4 µg/mL
MIC ([2]; read-out: Minimum inhibitory concentration (MIC), strain 157876 (enzyme content ND)): 8 µg/mL
MIC ([2]; read-out: Minimum inhibitory concentration (MIC), strain 157901 (enzyme content ND)): 16 µg/mL
MIC ([2]; read-out: Minimum inhibitory concentration (MIC), strain 161750 (enzyme content ND)): 128 µg/mL
MIC ([2]; read-out: Minimum inhibitory concentration (MIC), strain 161752 (enzyme content ND)): 16 µg/mL
MIC ([2]; read-out: Minimum inhibitory concentration (MIC), strain 161755 (enzyme content ND)): 8 µg/mL
MIC ([2]; read-out: Minimum inhibitory concentration (MIC), strain 161756 (enzyme content ND)): 8 µg/mL
MIC ([2]; read-out: Minimum inhibitory concentration (MIC), strain 161760 (enzyme content ND)): 32 µg/mL
MIC ([2]; read-out: Minimum inhibitory concentration (MIC), strain 161762 (enzyme content ND)): 8 µg/mL
Compound: CO/N=C(\C(=O)N[C@@H]1C(=O)N2C(C(=O)[O-])=C(C[N+]3(C)CCCC3)CS[C@H]12)c1csc(N)n1 [FEP, cefepime]
